Patent US11160794B2, “Methods for treating congenital disorders of glycosylation” (Maggie's Pearl, LLC, priority 2018, dated 2021)
Where a name gives a salt, the structure may show the parent alone.

Legend:
pmm-2 F125L/F125L worms = experiment: Bortezomib-induced growth suppression rescue screen in pmm-2 F125L worms; format: in vivo, nematode (worms); details: 25 μM drug, 11 μM Bzb, 5 days; one row per replicate
Excerpt: A F119L point mutation strain, orthologous F125L in worms was created.
Because an underlying defect in glycosylation may be manifested when subjected to external chemical stressors, Pmm-2 F119L homozygous animals were subjected to Tunicamycin and Bortezomib drug exposures. Tunicamycin is an inhibitor of N-linked glycosylation and Bortezomib (Bzb) is an irreversible inhibitor of the proteasome. It was contemplated that either or both drugs would affect the Pmm-2 mutants differently compared to wild type (“WT”).
Thus, Bzb-induced growth suppression was used as a means to identify compounds that might rescue the global effects of exacerbated glycosylation deficiency. Using this approach, animals were age-synchronized to obtain L1 larvae. Fifteen L1 larvae were dispensed into wells of a 384-well plate containing 25 μM of drugs (obtained from the MicroSource Spectrum library purchased from MicroSource Discovery Systems) and 11 μM Bzb. Bacterial media at fixed optical density was added to wells to enable worms to grow for a 5 day period. Animals were dispensed using Biosorter, a large particle flow cytometer by Union Biometrica, Mass. At the end of the 5 day period, animals were treated with 15 μls of 8 mM sodium azide (for 55 μls of total assay volume). After 20 minutes, immobilized animals were imaged using a plate imager under transmitted light. A custom image processing script was used to extract the areas occupied by worms/well over a 5 day period. Each plate has positive controls (no Bzb) and negative controls (11 μM Bzb) that was used to determine the z score of test wells per plate. After outlier correction for each plate in each replicate, data from all three replicates was compared. Wells per plate with positive z scores greater than 2 were identified as “hits.” If hits reproduced across all three replicates were then compared. […] At least 13 of the 20 compounds belong to the category of antioxidants; still others fall in the category of catecholamines

[1] = tested on: SEC53 variant (pmm2 mutant) yeast; experiment: Yeast growth rescue of SEC53 variant strains (validation of drug screen hits); format: cell-based; details: haploid and heterozygous diploid cells; dose response
Method: All strains used herein are in S288c background. Strains were grown in Synthetic Complete (“SC”) or SC drop out media (Sunrise)+2% dextrose at 30° C. unless otherwise noted. Standard genetic procedures of transformation and tetrad analysis were followed to construct strains. SEC53 rescue plasmid (pPL1) was generated by cloning the SEC53 promoter, open reading frame, and terminator sequences into the episomal pRS316 containing the URA3 selectable marker. SEC53 variants were generated by cloning the relevant promoter, GFP or SEC53 gene, and CYC1 terminator sequences into an integrating plasmid containing the LEU2 selectable marker and integrated at the SwaI restriction site into the HO locus. For PMM2 variants, the SEC53 ORF was replaced with a codon-optimized PMM2. Plasmids were generated by Next Interactions or GenScript. Strains were generated by Next Interactions or well-known techniques.
Cells from plates were resuspended in SC media to OD600=1.0, then serial diluted into 50 μL SC+FOA media in 384-well plates at 10^−1, 10^−2, and 10^−3. Plates were incubated at 30° C. and absorbance reading at […] were measured by a plate reader (Molecular Devices SpectraMax M3) at the indicated time points. Plates were vortexed briefly to resuspend cells prior to plate readings. 5-floroortic acid was purchased from US Biological and used at a concentration of 1 mg/L.
125 nL of compounds or DMSO were dispensed into 384-well plates using the Echo acoustic dispenser (LabCyte) to achieve a final concentration of 25 μM. 50 μL of 10^−2 dilution of an OD600=1.0 or 0.5 yeast cell suspensions were dispensed into the 384-well plates containing compounds or DMSO with a MultiFlo automated dispenser (Biotek). Plates were covered and incubated at 30° C. for 16-21 hours until OD600 reaches ˜0.8. Plates were vortexed briefly to resuspend cells prior to reading.
MicroSource Spectrum compounds were reordered from MicroSource Discovery Systems and resuspended in DMSO. 5-125 nL compounds or DMSO were dispensed into 384-well plates and 50 μL of yeast cell suspensions or media were dispensed by multichannel pipettes to achieve the desired concentration. Plates were covered and incubated at 30° C. for 16-23 hours until OD600 reaches ˜0.8. Plates were vortexed briefly to resuspend cells prior to plate readings.
pACT1-F126L, pSEC53-V238M, and pSEC53-F126L haploids and pACT1-F126L/pACT1-R148H, pSEC53-V238M/pSEC53-R148H, and pSEC53-F126L/pSEC53-R148H heterozygous diploids were advanced to a high-throughput drug screen. Screening was done in a 2,560 compound MicroSource Spectrum library collection consisting of FDA approved drugs, bioactive tool compounds, and natural products. Each strain was screened in duplicate and in 384-well plates, with each plate containing 32 wells of the negative control (no drugs) and 24 wells of the positive controls (wild type cells). […] Additionally, there is good correlation between replicates (correlation >0.4 for all panels). With a Z-score cutoff of 2.0, we initially identified six compounds that may be promising and their ability to rescue growth is conserved between the haploid and diploid strains.
These initial hits were further studied for validation. […] At the maximum dose tested, alpha-cyano-4-hydroxycinnamic acid (Compound 1) rescues the F126L allele by 17.7% in haploid and 24.5% in diploid cells.

SMILES	Status (pmm-2 F125L/F125L worms)	rescue of growth of SEC53 alleles [1]
O=c1c(O)cccc2ccc(O)c(O)c12	HIT (Wells per plate with positive z scores greater than 2 were identified as “hits.”)	
COc1ccc(C(=O)c2ccc(O)cc2)c(O)c1O [2,3,4′-TRIHYDROXY-4-METHOXYBENZOPHENONE, 2,3,4′-trihydroxy-4-methoxybenzophenone]	HIT (Wells per plate with positive z scores greater than 2 were identified as “hits.”)	
CCOc1cccc(C(=O)c2ccc(O)c(O)c2O)c1 [3,4-didesmethyl-5-deshydroxy-3′-ethoxyscleroin]	HIT (Wells per plate with positive z scores greater than 2 were identified as “hits.”)	
COc1cccc(O)c1O [3-METHOXYCATECHOL, 3-methoxycatechol]	HIT (Wells per plate with positive z scores greater than 2 were identified as “hits.”)	
Nc1ccc(O)c(N)c1 [AMIDOL DIHYDROCHLORIDE, amidol dihydrochloride]	HIT (Wells per plate with positive z scores greater than 2 were identified as “hits.”)	
O=c1cc(-c2ccccc2)oc2cc(O)c(O)c(O)c12 [BAICALEIN, baicalein]	HIT (Wells per plate with positive z scores greater than 2 were identified as “hits.”)	
Cc1ccc(C(=O)Nc2ccc(S(=O)(=O)O)c3cc(S(=O)(=O)O)cc(S(=O)(=O)O)c23)cc1NC(=O)c1cccc(NC(=O)Nc2cccc(C(=O)Nc3cc(C(=O)Nc4ccc(S(=O)(=O)O)c5cc(S(=O)(=O)O)cc(S(=O)(=O)O)c45)ccc3C)c2)c1 [Compound 3, 8-[[4-methyl-3-[[3-[[3-[[2-methyl-5-[(4,6,8-trisulfonaphthalen-1-yl)carbamoyl]phenyl]carbamoyl]phenyl]carbamoylamino]benzoyl]amino]benzoyl]amino]naphth alene-1,3,5-trisulfonic acid]		consistent and dose-dependent rescues
CC(CCc1ccc(O)cc1)NCCc1ccc(O)c(O)c1 (stereo not shown) [DOBUTAMINE HYDROCHLORIDE, dobutamine hydrochloride, reference compound]	HIT (Wells per plate with positive z scores greater than 2 were identified as “hits.”)	
CC1=NN(c2ccccc2)C(=O)C1 [EDARAVONE, edaravone, reference compound]	HIT (Wells per plate with positive z scores greater than 2 were identified as “hits.”)	
O=c1oc2c(O)c(O)cc3c(=O)oc4c(O)c(O)cc1c4c23 [ELLAGIC ACID, ellagic acid]	HIT (Wells per plate with positive z scores greater than 2 were identified as “hits.”)	
O=C(O[C@@H]1Cc2c(O)cc(O)cc2O[C@@H]1c1ccc(O)c(O)c1)c1cc(O)c(O)c(O)c1 [EPICATECHIN MONOGALLATE, epicatechin monogallate]	HIT (Wells per plate with positive z scores greater than 2 were identified as “hits.”)	
CCC(N)C(O)c1ccc(O)c(O)c1 (stereo not shown) [ETHYLNOREPINEPHRINE HYDROCHLORIDE, ethylnorepinephrine hydrochoride, reference compound]	HIT (Wells per plate with positive z scores greater than 2 were identified as “hits.”)	
O=c1c(O)c(-c2ccc(O)c(O)c2)oc2cc(O)ccc12 [FISETIN, fisetin]	HIT (Wells per plate with positive z scores greater than 2 were identified as “hits.”)	
O=c1c(O)c(-c2ccc(O)c(O)c2)oc2c(O)c(O)cc(O)c12 [GOSSYPETIN, gossypetin]	HIT (Wells per plate with positive z scores greater than 2 were identified as “hits.”)	
O=c1cc(-c2cc(O)c(O)c(O)c2)oc2cc(O)cc(O)c12 [HIERACIN, hieracin]	HIT (Wells per plate with positive z scores greater than 2 were identified as “hits.”)	
COc1ccc(-c2coc3cc(O)ccc3c2=O)c(O)c1O [KOPARIN, koparin]	HIT (Wells per plate with positive z scores greater than 2 were identified as “hits.”)	
N[C@@H](Cc1ccc(O)c(O)c1)C(=O)O [LEVODOPA, levodopa, reference compound]	HIT (Wells per plate with positive z scores greater than 2 were identified as “hits.”)	
O=C(O)c1cc(O)c(=O)c2c(O)c(O)c(O)cc2c1 [PURPUROGALLIN-4-CARBOXYLIC ACID, purpurogallin-4-carboxylic acid]	HIT (Wells per plate with positive z scores greater than 2 were identified as “hits.”)	
COc1cc(OC)c2c(=O)c(O)c(-c3ccc(OC)c(OC)c3)oc2c1 [QUERCETIN 5,7,3,4′-TETRAMETHYL ETHER, quercetin 5,7,3′,4′-tetramethyl ether]	HIT (Wells per plate with positive z scores greater than 2 were identified as “hits.”)	
COc1cc(O)c2c(=O)c(O)c(-c3ccc(O)c(O)c3)oc2c1 [RHAMNETIN, rhamnetin]	HIT (Wells per plate with positive z scores greater than 2 were identified as “hits.”)	
O=C(O[C@@H]1Cc2c(O)cc(O)cc2O[C@@H]1c1cc(O)c(=O)c2c(O)c(O)cc([C@H]3Oc4cc(O)cc(O)c4C[C@H]3O)c2c1)c1cc(O)c(O)c(O)c1 [THEAFLAVIN MONOGALLATES, theaflavin monogallate]	HIT (Wells per plate with positive z scores greater than 2 were identified as “hits.”)	
NCCS [cysteamine hydrochloride, reference compound]		does not rescue at any dose
